Source: US8158088B2, “Extractant compositions for co-extracting cesium and strontium, a method of separating cesium and strontium from an aqueous feed, and calixarene compounds” (Battelle Energy Alliance, LLC, priority 2008, dated 2012)

Key:
[1] = Solvent stability: strontium distribution ratios as a function of contact time with 1.5 M HNO3; type: physicochemical
Procedure: The stability of the mixed extractant solvents prepared using dialkyloxycalix[4]arenebenzocrown-6 compounds (MC-8, MC-8B, MC-10, MC-10B, MC-12, or MC-12B) relative to BOBCalixC6 in the FPEX I process solvent was determined. Samples were prepared using each of the dialkyloxycalix[4]arenebenzocrown-6 compounds and contacted with 1.5 M HNO3. The samples included 0.007 M of the respective dialkyloxycalix[4]arenebenzo-crown-6 compound (MC-8, MC-8B, MC-10, MC-10B, MC-12, or MC-12B), 0.075 M DtBuCH18C6, 0.75 M Cs-7SB modifier, and 0.003 M TOA in ISOPAR® L. The stability of the dialkyloxycalix[4]arene-benzocrown-6 based solvents was evaluated by measuring the cesium and strontium distribution ratios as a function of contact time. These cesium and strontium distribution ratios for the mixed extractant solvents are presented in Table 9 and Table 10, respectively, along with the cesium and strontium distribution ratios for the FPEX I process solvent. The symbol “-” is used in Tables 9 and 10 to indicate no data was collected.
This degradation is likely due to chemical attack or nitration of the BOBCalixC6 in the FPEX I process solvent. […] However, it is difficult to compare the relative extents of degradation. In order to compare the different extractants, the distribution ratio data presented in Tables 9 and 10 were normalized to the values obtained at t=0 days contact. The normalized cesium and strontium distribution ratios for the FPEX I process solvent and the mixed extractant solvents as a function of contact time are presented in FIGS. 2 and 3, respectively.

[2] = Strontium distribution ratio (DSr), equilibrium batch contact of mixed extractant solvent with nitric acid feed; type: physicochemical

**Q.** What does the source list for `CCCCCCCCOc1c2cccc1Cc1cccc3c1OCCOCCOc1ccccc1OCCOCCOc1c(cccc1Cc1cccc(c1OCCCCCCCC)C3)C2` [MC-8, 1,3-alternate-25,27-di(octyloxy)calix[4]arenebenzocrown-6]?
**A.** Strontium distribution ratio as a function of contact time ([1]; contact time 0 days with 1.5 M HNO3, 0.007 M calixarene, 0.075 M DtBuCH18C6, 0.75 M Cs-7SB, 0.003 M TOA in ISOPAR L): 10.5; Strontium distribution ratio as a function of contact time ([1]; contact time 34 days with 1.5 M HNO3): 7.7; Strontium distribution ratio as a function of contact time ([1]; contact time 70 days with 1.5 M HNO3): 9.3; Strontium distribution ratio as a function of contact time ([1]; contact time 278 days with 1.5 M HNO3): 8.0; DSr ([2]; 0.010 M MC-8, contact E1, 1.5 M HNO3, 0.075 M DtBuCH18C6, 0.75 M Cs-7SB, 0.003 M TOA in ISOPAR L): 8.9; DSr ([2]; 0.015 M MC-8, contact E1, 1.5 M HNO3): 7.2; DSr ([2]; 0.020 M MC-8, contact E1, 1.5 M HNO3): 9.4; DSr ([2]; 0.025 M MC-8, contact E1, 1.5 M HNO3): 9.1; DSr ([2]; 1.0 M HNO3, 20 °C, contact E1, 0.025 M MC-8, 0.075 M DtBuCH18C6, 0.75 M Cs-7SB, 0.003 M TOA in ISOPAR L): 7.4; DSr ([2]; 1.5 M HNO3, 20 °C, contact E1, 0.025 M MC-8): 12.4; DSr ([2]; 2.0 M HNO3, 20 °C, contact E1, 0.025 M MC-8): 16.2; DSr ([2]; 3.0 M HNO3, 20 °C, contact E1, 0.025 M MC-8): 3rd phase; DSr ([2]; 4.0 M HNO3, 20 °C, contact E1, 0.025 M MC-8): 3rd phase; DSr ([2]; 15 °C, contact E1, 1.0 M HNO3 feed, 0.025 M MC-8, 0.075 M DtBuCH18C6, 0.75 M Cs-7SB, 0.003 M TOA in ISOPAR L): 9.0; DSr ([2]; 20 °C, contact E1, 1.0 M HNO3 feed, 0.025 M MC-8): 6.0; DSr ([2]; 25 °C, contact E1, 1.0 M HNO3 feed, 0.025 M MC-8): 4.6; DSr ([2]; 30 °C, contact E1, 1.0 M HNO3 feed, 0.025 M MC-8): 3.4; DSr ([2]; 35 °C, contact E1, 1.0 M HNO3 feed, 0.025 M MC-8): 2.5; DSr ([2]; contact E1, batch contact flowsheet, simulated feed 1.0 M HNO3, 0.025 M MC-8): 7.1; DSr ([2]; contact E2, simulated feed 1.0 M HNO3, 0.025 M MC-8): 6.2; DSr ([2]; contact E3, simulated feed 1.0 M HNO3, 0.025 M MC-8): 6.2; DSr ([2]; contact St1 (strip), 0.025 M MC-8): 0.022; DSr ([2]; contact St2 (strip), 0.025 M MC-8): 0.006; Strontium distribution ratio, contact E1 ([2]; first forward extraction, 1.5 M HNO3 feed simulant, 25 °C, 0.007 M calixarene, 0.075 M DtBuCH18C6, 0.75 M Cs-7SB, 0.003 M TOA in ISOPAR L): 10.5; Strontium distribution ratio, contact St1 ([2]; first strip with 0.01 M HNO3, 35 °C, 0.007 M calixarene solvent): 0.06; Strontium distribution ratio, contact E2 ([2]; second forward extraction, 1.5 M HNO3 feed, 25 °C, 0.007 M calixarene solvent): 8.6; Strontium distribution ratio, contact St2 ([2]; second strip with 0.01 M HNO3, 35 °C, 0.007 M calixarene solvent): 0.01; Strontium distribution ratio, contact E3 ([2]; third forward extraction, 1.5 M HNO3 feed, 25 °C, 0.007 M calixarene solvent): 8.5
